{"source": "PubChem BioAssay (NCI)", "assay_in_all_cases": "NCI tumour cell line growth inhibition, 48 h", "key": {"NCI-H23 lung": {"test_system": "NCI-H23 lung"}, "NCI-H460 lung": {"test_system": "NCI-H460 lung"}, "NCI-H522 lung": {"test_system": "NCI-H522 lung"}, "NCI/ADR-RES ovarian": {"test_system": "NCI/ADR-RES ovarian"}, "OVCAR-3 ovarian": {"test_system": "OVCAR-3 ovarian"}, "OVCAR-4 ovarian": {"test_system": "OVCAR-4 ovarian"}, "OVCAR-5 ovarian": {"test_system": "OVCAR-5 ovarian"}, "OVCAR-8 ovarian": {"test_system": "OVCAR-8 ovarian"}, "PC-3 prostate": {"test_system": "PC-3 prostate"}, "RPMI-8226 leukemia": {"test_system": "RPMI-8226 leukemia"}, "RXF 393 renal": {"test_system": "RXF 393 renal"}, "SF-268 CNS": {"test_system": "SF-268 CNS"}, "SF-295 CNS": {"test_system": "SF-295 CNS"}, "SF-539 CNS": {"test_system": "SF-539 CNS"}, "SK-MEL-2 melanoma": {"test_system": "SK-MEL-2 melanoma"}, "SK-MEL-28 melanoma": {"test_system": "SK-MEL-28 melanoma"}, "SK-MEL-5 melanoma": {"test_system": "SK-MEL-5 melanoma"}, "SK-OV-3 ovarian": {"test_system": "SK-OV-3 ovarian"}, "SN12C renal": {"test_system": "SN12C renal"}, "SNB-19 CNS": {"test_system": "SNB-19 CNS"}, "SNB-75 CNS": {"test_system": "SNB-75 CNS"}, "SR leukemia": {"test_system": "SR leukemia"}, "SW-620 colon": {"test_system": "SW-620 colon"}, "T-47D breast": {"test_system": "T-47D breast"}, "TK-10 renal": {"test_system": "TK-10 renal"}, "U251 CNS": {"test_system": "U251 CNS"}, "UACC-257 melanoma": {"test_system": "UACC-257 melanoma"}, "UACC-62 melanoma": {"test_system": "UACC-62 melanoma"}, "UO-31 renal": {"test_system": "UO-31 renal"}}, "note": "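How tested: cells in 96-well plates exposed to compound for 48 hours at five concentrations. GI50 = concentration required for 50% inhibition of growth. TGI: concentration producing complete growth inhibition.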", "data": [{"smiles": "N#Cc1ccc(/C=N/NC(=O)c2[nH]c3ccc(Br)cc3c2-c2ccccc2)s1", "values": [{"measurement": "TGI", "setting": "NCI-H23 lung", "result": 12000, "unit": "nM"}, {"measurement": "GI50", "setting": "NCI-H460 lung", "result": 340, "unit": "nM"}, {"measurement": "TGI", "setting": "NCI-H460 lung", "result": 2250, "unit": "nM"}, {"measurement": "GI50", "setting": "NCI-H522 lung", "result": 78.5, "unit": "nM"}, {"measurement": "TGI", "setting": "NCI-H522 lung", "result": 262, "unit": "nM"}, {"measurement": "GI50", "setting": "NCI/ADR-RES ovarian", "result": 118, "unit": "nM"}, {"measurement": "TGI", "setting": "NCI/ADR-RES ovarian", "result": 2090, "unit": "nM"}, {"measurement": "GI50", "setting": "OVCAR-3 ovarian", "result": 367, "unit": "nM"}, {"measurement": "TGI", "setting": "OVCAR-3 ovarian", "result": 15700, "unit": "nM"}, {"measurement": "GI50", "setting": "OVCAR-4 ovarian", "result": 783, "unit": "nM"}, {"measurement": "TGI", "setting": "OVCAR-4 ovarian", "result": 30200, "unit": "nM"}, {"measurement": "GI50", "setting": "OVCAR-5 ovarian", "result": 439, "unit": "nM"}, {"measurement": "TGI", "setting": "OVCAR-5 ovarian", "result": 24600, "unit": "nM"}, {"measurement": "GI50", "setting": "OVCAR-8 ovarian", "result": 204, "unit": "nM"}, {"measurement": "TGI", "setting": "OVCAR-8 ovarian", "result": 2190, "unit": "nM"}, {"measurement": "GI50", "setting": "PC-3 prostate", "result": 304, "unit": "nM"}, {"measurement": "TGI", "setting": "PC-3 prostate", "result": 12300, "unit": "nM"}, {"measurement": "GI50", "setting": "RPMI-8226 leukemia", "result": 149, "unit": "nM"}, {"measurement": "TGI", "setting": "RPMI-8226 leukemia", "result": "> 20900", "unit": "nM"}, {"measurement": "GI50", "setting": "RXF 393 renal", "result": 222, "unit": "nM"}, {"measurement": "TGI", "setting": "RXF 393 renal", "result": 487, "unit": "nM"}, {"measurement": "GI50", "setting": "SF-268 CNS", "result": 1580, "unit": "nM"}, {"measurement": "TGI", "setting": "SF-268 CNS", "result": "> 64900", "unit": "nM"}, {"measurement": "GI50", "setting": "SF-295 CNS", "result": 41.4, "unit": "nM"}, {"measurement": "TGI", "setting": "SF-295 CNS", "result": 2330, "unit": "nM"}, {"measurement": "GI50", "setting": "SF-539 CNS", "result": 87.8, "unit": "nM"}, {"measurement": "TGI", "setting": "SF-539 CNS", "result": 543, "unit": "nM"}, {"measurement": "GI50", "setting": "SK-MEL-2 melanoma", "result": 451, "unit": "nM"}, {"measurement": "TGI", "setting": "SK-MEL-2 melanoma", "result": 16200, "unit": "nM"}, {"measurement": "GI50", "setting": "SK-MEL-28 melanoma", "result": 847, "unit": "nM"}, {"measurement": "TGI", "setting": "SK-MEL-28 melanoma", "result": "> 37400", "unit": "nM"}, {"measurement": "GI50", "setting": "SK-MEL-5 melanoma", "result": 272, "unit": "nM"}, {"measurement": "TGI", "setting": "SK-MEL-5 melanoma", "result": 1230, "unit": "nM"}, {"measurement": "GI50", "setting": "SK-OV-3 ovarian", "result": 993, "unit": "nM"}, {"measurement": "TGI", "setting": "SK-OV-3 ovarian", "result": 15300, "unit": "nM"}, {"measurement": "GI50", "setting": "SN12C renal", "result": 227, "unit": "nM"}, {"measurement": "TGI", "setting": "SN12C renal", "result": 6330, "unit": "nM"}, {"measurement": "GI50", "setting": "SNB-19 CNS", "result": 439, "unit": "nM"}, {"measurement": "TGI", "setting": "SNB-19 CNS", "result": 16700, "unit": "nM"}, {"measurement": "GI50", "setting": "SNB-75 CNS", "result": 630, "unit": "nM"}, {"measurement": "TGI", "setting": "SNB-75 CNS", "result": 5360, "unit": "nM"}, {"measurement": "GI50", "setting": "SR leukemia", "result": 99.2, "unit": "nM"}, {"measurement": "TGI", "setting": "SR leukemia", "result": "> 38800", "unit": "nM"}, {"measurement": "GI50", "setting": "SW-620 colon", "result": 182, "unit": "nM"}, {"measurement": "TGI", "setting": "SW-620 colon", "result": 14900, "unit": "nM"}, {"measurement": "GI50", "setting": "T-47D breast", "result": 2460, "unit": "nM"}, {"measurement": "TGI", "setting": "T-47D breast", "result": 27300, "unit": "nM"}, {"measurement": "GI50", "setting": "TK-10 renal", "result": 1930, "unit": "nM"}, {"measurement": "TGI", "setting": "TK-10 renal", "result": 23800, "unit": "nM"}, {"measurement": "GI50", "setting": "U251 CNS", "result": 312, "unit": "nM"}, {"measurement": "TGI", "setting": "U251 CNS", "result": 5790, "unit": "nM"}, {"measurement": "GI50", "setting": "UACC-257 melanoma", "result": 344, "unit": "nM"}, {"measurement": "TGI", "setting": "UACC-257 melanoma", "result": 12900, "unit": "nM"}, {"measurement": "GI50", "setting": "UACC-62 melanoma", "result": 139, "unit": "nM"}, {"measurement": "TGI", "setting": "UACC-62 melanoma", "result": 6990, "unit": "nM"}, {"measurement": "GI50", "setting": "UO-31 renal", "result": 275, "unit": "nM"}, {"measurement": "TGI", "setting": "UO-31 renal", "result": 17600, "unit": "nM"}]}]}
